Assay results from PubChem BioAssay AID192 (DTP/NCI, 2004).
Where “and” joins values, the source holds several entries; their conditions need not be identical. Identical values can stand only once. Inconclusive results and toxic doses are left out. Rule for the calls: active = survival T/C of 150% or more; inactive = T/C below 125% in these data. Peptide text beside a SMILES is read from it.

System: BDF1 mice, B16 melanoma ip, median survival T/C
Assay: NCI In Vivo Anticancer Drug Screen. Data for tumor model B16 Melanoma (intraperitoneal) in B6D2F1 (BDF1) mice
Settings: endpoint: median survival time, higher = longer survival
How it was run: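 Compounds were tested in mice carrying transplantable tumors. Survival or tumor size was recorded, and each value is the treated-group measurement (T) divided by that of the vehicle-treated control group (C).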

[1] = dose: 6.25 mg/kg/injection, schedule: Q01DX009 (ip), vehicle: saline
[2] = dose: 12.5 mg/kg/injection, schedule: Q01DX009 (ip), vehicle: saline
[3] = dose: 50.0 mg/kg/injection, schedule: Q01DX009 (ip), vehicle: saline
[4] = dose: 12.5 mg/kg/injection, schedule: Q01DX009 (ip), vehicle: Klucel (hydroxypropylcellulose) (HPC)
[5] = dose: 25.0 mg/kg/injection, schedule: Q01DX009 (ip), vehicle: Klucel (hydroxypropylcellulose) (HPC)
[6] = dose: 6.25 mg/kg/injection, schedule: Q01DX009 (ip), vehicle: saline with Tween-80
[7] = dose: 12.5 mg/kg/injection, schedule: Q01DX009 (ip), vehicle: saline with Tween-80
[8] = dose: 25.0 mg/kg/injection, schedule: Q01DX009 (ip), vehicle: saline with Tween-80
[9] = dose: 50.0 mg/kg/injection, schedule: Q01DX009 (ip), vehicle: saline with Tween-80
[10] = dose: 100.0 mg/kg/injection, schedule: Q01DX009 (ip), vehicle: saline with Tween-80
[11] = dose: 100.0 mg/kg/injection, schedule: Q01DX009 (ip), vehicle: Klucel (hydroxypropylcellulose) (HPC)
[12] = dose: 200.0 mg/kg/injection, schedule: Q01DX009 (ip), vehicle: Klucel (hydroxypropylcellulose) (HPC)
[13] = dose: 400.0 mg/kg/injection, schedule: Q01DX009 (ip), vehicle: Klucel (hydroxypropylcellulose) (HPC)
[14] = dose: 25.0 mg/kg/injection, schedule: Q01DX009 (ip), vehicle: saline
[15] = dose: 100.0 mg/kg/injection, schedule: Q01DX009 (ip), vehicle: saline
[16] = dose: 400.0 mg/kg/injection, schedule: Q01DX009 (ip), vehicle: saline
[17] = dose: 200.0 mg/kg/injection, schedule: Q01DX009 (ip), vehicle: saline with Tween-80
[18] = dose: 6.25 mg/kg/injection, schedule: Q01DX009 (ip), vehicle: Klucel (hydroxypropylcellulose) (HPC)
[19] = dose: 100.0 mg/kg/injection, schedule: Q04DX003 (ip), vehicle: Klucel (hydroxypropylcellulose) (HPC)
[20] = dose: 200.0 mg/kg/injection, schedule: Q04DX003 (ip), vehicle: Klucel (hydroxypropylcellulose) (HPC)
[21] = dose: 400.0 mg/kg/injection, schedule: Q04DX003 (ip), vehicle: Klucel (hydroxypropylcellulose) (HPC)

Measured: T/C

COC1=NCN=C2SC=C(N)N=C12
inactive: dose: 3.13 mg/kg/injection, schedule: Q01DX009 (ip), vehicle: saline 105 % of control | [1] 100 % of control and 109 % of control | [2] 96 % of control and 98 % of control | [3] 98 % of control and 100 % of control

O=[N+]([O-])CC1(O)CCCCC1
inactive: [4] 102 % of control | [5] 94 % of control

N#CSc1ccc(NN)cc1
inactive: dose: 6.25 mg/kg/injection, schedule: Q01DX009 (ip), vehicle: other 96 % of control | dose: 12.5 mg/kg/injection, schedule: Q01DX009 (ip), vehicle: other 114 % of control | dose: 25.0 mg/kg/injection, schedule: Q01DX009 (ip), vehicle: other 99 % of control

C/C(=N\NC(N)=O)c1cccc(/C(C)=N/NC(N)=O)n1
inactive: [6] 91 % of control | [7] 96 % of control | [8] 86 % of control | [9] 88 % of control | [10] 86 % of control

CCOC(=O)NC(C)(C)CC(C)(C)C
inactive: [11] 106 % of control

ClC(Cl)(Cl)c1nc2nccnc2[nH]1
inactive: dose: 3.13 mg/kg/injection, schedule: Q01DX009 (ip), vehicle: saline with Tween-80 102 % of control | [6] 94 % of control | [7] 105 % of control | [8] 91 % of control

CCOc1ccccc1NC(=O)Nc1ccc(Cl)cc1
inactive: [11] 110 % of control | [12] 103 % of control | [13] 100 % of control

COc1ccc(OC)c(C2N(Cc3ccc(N(C)C)cc3)CCCN2Cc2ccc(N(C)C)cc2)c1
inactive: [8] 104 % of control | [9] 97 % of control | [10] 100 % of control

NNC(=O)NO
inactive: [7] 102 % of control | [8] 121 % of control

CCCCCCCCCCCCCCCCC/C=C1\CC(=O)OC1=O
inactive: [8] 97 % of control and 99 % of control | [9] 91 % of control and 105 % of control | [10] 92 % of control

c1ccc(C2CN3CCSC3=N2)cc1 (stereo unspecified)
inactive: dose: 1.56 mg/kg/injection, schedule: Q01DX009 (ip), vehicle: saline 103 % of control | dose: 3.12 mg/kg/injection, schedule: Q01DX009 (ip), vehicle: saline 104 % of control | [1] 96 % of control | [2] 94 % of control | [14] 100 % of control

COc1ccccc1NC(=O)c1cc2ccccc2cc1O
inactive: [15] 121 % of control | [16] 118 % of control

NC(Cc1ccc(O)cc1)C(=O)O (stereo unspecified)
inactive: [10] 110 % of control | dose: 100.0 mg/kg/injection, schedule: Q04DX003 (ip), vehicle: saline with Tween-80 107 % of control | [17] 87 % of control | dose: 200.0 mg/kg/injection, schedule: Q04DX003 (ip), vehicle: saline with Tween-80 104 % of control | dose: 400.0 mg/kg/injection, schedule: Q01DX009 (ip), vehicle: saline with Tween-80 90 % of control | dose: 400.0 mg/kg/injection, schedule: Q04DX003 (ip), vehicle: saline with Tween-80 104 % of control

Cc1ccc(NCC2(/N=C/c3ccccc3)OC(CO)C(O)C2O)cc1 (stereo unspecified)
inactive: [18] 98 % of control | [4] 109 % of control | [5] 91 % of control and 95 % of control | dose: 50.0 mg/kg/injection, schedule: Q01DX009 (ip), vehicle: Klucel (hydroxypropylcellulose) (HPC) 90 % of control and 92 % of control | [11] 93 % of control and 114 % of control | dose: 177.0 mg/kg/injection, schedule: Q01DX009 (ip), vehicle: Klucel (hydroxypropylcellulose) (HPC) 123 % of control | [12] 104 % of control | dose: 266.0 mg/kg/injection, schedule: Q01DX009 (ip), vehicle: Klucel (hydroxypropylcellulose) (HPC) 123 % of control | [13] 109 % of control

CC(NC(=O)C(C)NC(=O)C(N)CCC(=O)O)C(=O)O (stereo not drawn) (H-Glu-Ala-Ala-OH; configuration not given here)
inactive: [3] 111 % of control | [15] 96 % of control | dose: 200.0 mg/kg/injection, schedule: Q01DX009 (ip), vehicle: saline 105 % of control | [16] 94 % of control

CCC(=O)/C=C/C1=C(C)CCCC1(C)C
inactive: [9] 104 % of control | [10] 103 % of control | [17] 92 % of control

CC1(C)COCN1COCCOCN1COCC1(C)C
inactive: [1] 102 % of control | [2] 103 % of control | [14] 113 % of control | [3] 118 % of control | [15] 120 % of control

CCOC(=O)c1cnc(SC)nc1Sc1ccc(Cl)cc1
inactive: [19] 100 % of control | [20] 99 % of control | [21] 89 % of control

CCc1c2cc3c(cc2cc2c4cc5c(cc4cc[n+]12)OCO5)OCO3 (tested in a mixture with another compound)
inactive: dose: 1.56 mg/kg/injection, schedule: Q01DX009 (ip), vehicle: Klucel (hydroxypropylcellulose) (HPC) 103 % of control | dose: 3.13 mg/kg/injection, schedule: Q01DX009 (ip), vehicle: Klucel (hydroxypropylcellulose) (HPC) 106 % of control | [18] 106 % of control

COc1ccc2c(c1)CCC(c1ccccc1)=C2c1ccc(OCCN2CCCC2)cc1
inactive: dose: 6.0 mg/kg/injection, schedule: Q01DX009 (ip), vehicle: saline sonified 102 % of control | dose: 12.0 mg/kg/injection, schedule: Q01DX009 (ip), vehicle: saline sonified 111 % of control | dose: 24.0 mg/kg/injection, schedule: Q01DX009 (ip), vehicle: saline sonified 111 % of control

C[Si](C)(C)O/C=C1\CCCCC1=O
inactive: [6] 96 % of control | [7] 99 % of control | [8] 92 % of control | [9] 94 % of control | [10] 88 % of control | [17] 94 % of control

C[C@H]1C(=O)O[C@@H]2CCN3CC=C(COC(=O)[C@](C)(O)[C@@]1(C)O)[C@H]23
inactive: [14] 123 % of control

COc1ccc(/C=C/c2cnc3ccccc3n2)cc1OC
inactive: dose: 75.0 mg/kg/injection, schedule: Q01DX009 (ip), vehicle: Klucel (hydroxypropylcellulose) (HPC) 100 % of control | dose: 150.0 mg/kg/injection, schedule: Q01DX009 (ip), vehicle: Klucel (hydroxypropylcellulose) (HPC) 100 % of control | dose: 300.0 mg/kg/injection, schedule: Q01DX009 (ip), vehicle: Klucel (hydroxypropylcellulose) (HPC) 92 % of control

CCOC(=O)Nc1ccc(OC)cc1
inactive: [19] 95 % of control | [20] 100 % of control | [21] 97 % of control

CCCCN(CCCC)CCC(=O)c1ccc(OC)c2ccccc12
inactive: [7] 99 % of control | [8] 88 % of control

COc1cc2c(cc1OC)/C(=N/N=C1\CCCc3cc(OC)c(OC)cc31)CCC2
inactive: dose: 1.56 mg/kg/injection, schedule: Q01DX009 (ip), vehicle: water 104 % of control | dose: 3.13 mg/kg/injection, schedule: Q01DX009 (ip), vehicle: water 100 % of control | dose: 6.25 mg/kg/injection, schedule: Q01DX009 (ip), vehicle: water 100 % of control | dose: 12.5 mg/kg/injection, schedule: Q01DX009 (ip), vehicle: water 95 % of control

CC[P+](CC)(CC)CCCCI
inactive: [3] 93 % of control

O=C1NC(c2c(Cl)cccc2Cl)Nc2ccccc21 (stereo unspecified)
inactive: [11] 96 % of control | [12] 103 % of control | [13] 90 % of control
